Data taken from paper PMC7038073, “Substituted Piperazines as Novel Potential Radioprotective Agents” (Molecules, 2020).
Entries after “also recorded” stand apart in the source; their conditions may differ. Structures can show the parent of a compound that is named as a salt.

Experiments:
BALB/c mice = experiment: Survival of whole-body irradiated mice; format: in vivo; conditions: female BALB/c mice; for day post-irradiation of onset of lethal effect / decline in survival: i.p. at 50% of MTD 5 min before 7.15 Gy, non-treated control 10 days; for survival at day 30 post-irradiation: n = 10, i.p. at 50% of MTD 5 min before 7.15 Gy, control 40%
Protocol: To estimate the radioprotective effect on whole-body irradiated mice, compounds 4 (50 mg/kg), 5 (100 mg/kg), 6 (50 mg/kg), 7 (100 mg/kg), 8 (1000 mg/kg), and 10 (325 mg/kg) were injected (intraperitoneally, i.p.) 5 min before receiving 7.15 Gy of gamma radiation. These compounds were selected based on the cytotoxicity screening in vitro, and applied at a dose corresponding to 50% of the MTD in vivo. […] The follow-up period was 30 days.
Adult female BALB/c mice (21 ± 0.8 g) were used for all experiments (Velaz a.s., Prague, Czech Rep.). All the performed methods were in accordance with NIRS Guidelines for the Care and Use of Laboratory Animals and approved by the Committee for animal rights of the Ministry of Defence of the Czech Republic no. ČJ MO 255172/2019-684800. The mice, arranged in groups of 10 animals each, received a dose of 7.15 Gy from a ^60Co gamma source (Chisotron, Chirana, Czech Republic) at a dose rate of 1.04 Gy/min. Non-irradiated and non-treated control groups were included. Their survival and health status were checked on a daily basis for 30 days.
Compounds 4 (50 mg/kg), 5 (100 mg/kg), 6 (50 mg/kg), 7 (100 mg/kg), 8 (1000 mg/kg), and 10 (325 mg/kg) were selected and administered i.p. 5 min before irradiation. The doses were prepared from 100 mg/mL stock before each experiment.

[1] = WST-1 cytotoxicity test, MCF-7; format: cell-based; conditions: human, MCF-7 cells, 48 h, WST-1, mean ± SD of three experiments, read-out: relative viability (%) compared to untreated control; for viability at 48 h, 10 µM: MCF-7, 10 µM; for viability at 48 h, 100 µM: MCF-7, 100 µM
Protocol: In this study, the cytotoxic effects of nine new compounds (2, 3, 4, 5, 6, 7, 8, 9, 10) were tested on 10 human cell lines (nine cancer and one non-cancer cell line). The cell lines were treated with each compound at concentrations of 10 µM and 100 µM for 48 h. The proliferation capacity of the treated cells was determined by WST-1 test and compared against the proliferation rate of the untreated control cells (100%).
The cell lines Jurkat, MOLT-4, A2780, A549, HT-29, PANC-1, HeLa, MCF-7, SAOS-2, and MRC-5 (all purchased from Sigma Aldrich, Czech Republic) were included in this study. All cell lines were maintained according to the provider’s guidelines, and plated and treated in 96-well plates (500 to 30 × 10^3 cells per well). The tested compounds 2, 3, 4, 5, 6, 7, 8, 9, and 10 were dissolved in 0.1% DMSO and kept in 10 mM stock solutions. Before use, the stock solution was diluted in culture media at ratios of 1:100 and 1:1000. The studied cell lines were treated with the compounds 2, 3, 4, 5, 6, 7, 8, 9, and 10 at concentrations of 10 and 100 µM for 48 h. Control cells were tested in culture media with and without DMSO (0.1%). The cells were also treated with 1 µM doxorubicin as a cytotoxicity control.
The WST-1 (2-(4-iodophenyl)-3-(4-nitrophenyl)-5-(2,4-disulfophenyl)-2H-tetrazolium, monosodium salt) test (Roche, Mannheim, Germany) was used according to the manufacturer’s protocol to determine cell viability in all 10 cell lines 48 h after treatment with the tested compounds. The cells were analyzed in a Tecan Infinite M200 spectrometer (Tecan Group, Männedorf, Switzerland) at 440 nm.

Solubility (in words) = format: physicochemical

SMILES | day post-irradiation of onset of lethal effect / decline in survival (BALB/c mice) [days] | survival at day 30 post-irradiation (BALB/c mice) [%] | viability at 48 h, 10 µM [1] [%] | viability at 48 h, 100 µM [1] [%] | solubility (in words) (Solubility (in words))
Cc1cc(OCC(O)CN2CCN(CCO)CC2)ccc1Cl.Cl.Cl (stereo not shown) [Compound 4, 1-(4-chloro-3-methylphenoxy)-3-(4-(2-hydroxyethyl)piperazin-1-yl)propan-2-ol dihydrochloride] | > 12 | 50 | 105 ± 4 | 90 ± 3 | –
Cl.Cl.Cl.OCCN1CCN(CCCNc2ccccc2)CC1 [Compound 5, 2-(4-(3-(phenylamino)propyl)piperazin-1-yl)ethanol trihydrochloride] | 10 | 30 | 101 ± 6 | 106 ± 1 | –
Cl.Cl.Cl.OCCN1CCN(CCCNc2cccc3ccccc23)CC1 [Compound 6, 2-(4-(3-(naphthalen-1-ylamino)propyl)piperazin-1-yl)ethanol trihydrochloride] | 10 | 20 | 102 ± 8 | 94 ± 9 | –
COc1ccc(NCCCN2CCN(CCO)CC2)cc1.Cl.Cl.Cl [Compound 7, 2-(4-(3-((4-methoxyphenyl)amino)propyl)piperazin-1-yl)ethanol trihydrochloride] | 9 | 0 | 105 ± 6 | 104 ± 6 | –
OCCN1CCN(CC(O)CN2CCN(CCO)CC2)CC1 [Compound 8, 1.3-bis [4-(2-hydroxyethyl)piperazin-1-yl)propan-2-ol tetrahydrochloride] | > 12 | 70 | 101 ± 5 | 96 ± 7 | excellently soluble in media
Cl.Cl.OC(CNc1ccccc1)CNc1ccccc1 [Compound 9, 1,3-bis(phenylamino)propan-2-ol dihydrochloride] | – | – | 100 ± 4 | 98 ± 11 | low solubility; also recorded: insufficiently soluble for necessary concentrations
Cl.Cl.Cl.OCCN1CCN(CC(O)CNc2ccccc2)CC1 (stereo not shown) [Compound 10, 1-(phenylamino]-3-[4-(2-hydroxyethyl)piperazin-1-yl)propan-2-ol trihydrochloride] | > 12 | 30 | 98 ± 2 | 96 ± 6 | –
